# Laboratory results taken from PubChem BioAssay AID1963836 (Molecular Pharmacology Branch, DTP, NCI, 2024).
# System: 857933-349-R-J2-PDC complex spheroid viability
# Assay: Anticancer human tumor 857933-349-R-J2-PDC patient-derived colon adenocarcinoma cell line growth inhibition [POLQ]
# Conditions: for IC50: curve of first compound; for viability, T/C: stronger effect = lower value
# Procedure, shortened: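 Patient-derived tumour cells were co-cultured with HUVEC and mesenchymal stem cells as multicellular spheroids at 37 °C. They were treated with POLQ inhibitors (novobiocin, ART-558, RP6685) alone or combined with other agents. Top concentrations were at or near clinical Cmax (otherwise 10 microM; SN-38 at 1 microM), decreasing in half-log steps.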
# [1] = second compound 0.0316 µM, first compound 0.0316 µM
# [2] = second compound 0.0316 µM, first compound 0.1 µM
# [3] = second compound 0.0316 µM, first compound 0.316 µM
# [4] = second compound 0.0316 µM, first compound 1 µM
# [5] = second compound 0.0316 µM, first compound 3.16 µM
# [6] = second compound 0.0316 µM, first compound 10 µM
# [7] = second compound 0.1 µM, first compound 0.0316 µM
# [8] = second compound 0.1 µM, first compound 0.1 µM
# [9] = second compound 0.1 µM, first compound 0.316 µM
# [10] = second compound 0.1 µM, first compound 1 µM
# [11] = second compound 0.1 µM, first compound 3.16 µM
# [12] = second compound 0.1 µM, first compound 10 µM
# [13] = second compound 0.316 µM, first compound 0.0316 µM
# [14] = second compound 0.316 µM, first compound 0.1 µM
# [15] = second compound 0.316 µM, first compound 0.316 µM
# [16] = second compound 0.316 µM, first compound 1 µM
# [17] = second compound 0.316 µM, first compound 3.16 µM
# [18] = second compound 0.316 µM, first compound 10 µM
# [19] = second compound 1 µM, first compound 0.0316 µM
# [20] = second compound 1 µM, first compound 0.1 µM
# [21] = second compound 1 µM, first compound 0.316 µM
# [22] = second compound 1 µM, first compound 1 µM
# [23] = second compound 1 µM, first compound 3.16 µM
# [24] = second compound 1 µM, first compound 10 µM
# [25] = second compound 3.16 µM, first compound 0.0316 µM
# [26] = second compound 3.16 µM, first compound 0.1 µM
# [27] = second compound 3.16 µM, first compound 0.316 µM
# [28] = second compound 3.16 µM, first compound 1 µM
# [29] = second compound 3.16 µM, first compound 3.16 µM
# [30] = second compound 3.16 µM, first compound 10 µM
# [31] = second compound 10 µM, first compound 0.0316 µM
# [32] = second compound 10 µM, first compound 0.1 µM
# [33] = second compound 10 µM, first compound 0.316 µM
# [34] = second compound 10 µM, first compound 1 µM
# [35] = second compound 10 µM, first compound 3.16 µM
# [36] = second compound 10 µM, first compound 10 µM
# 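Note: spheroids exposed to compounds for seven days before readout.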
structure (smiles),measurement,setting,value
COc1cc(C2c3cc4c(cc3C(OC3OC5COC(C)OC5C(O)C3O)C3COC(=O)C23)OCO4)cc(OC)c1O (stereo not drawn) + Cc1cccc(N(C)C(=O)C2C(O)CCN2c2nc(C)cc(C(F)(F)F)c2C#N)c1,IC50,second compound 0.0316 µM,725 nM
same,IC50,second compound 0.1 µM,547 nM
same,IC50,second compound 0.316 µM,797 nM
same,IC50,second compound 1 µM,541 nM
same,IC50,second compound 3.16 µM,240 nM
same,IC50,second compound 10 µM,323 nM
same,"viability, T/C",[1],86.1%
same,"viability, T/C",[2],81.9%
same,"viability, T/C",[3],60%
same,"viability, T/C",[4],47%
same,"viability, T/C",[5],37.1%
same,"viability, T/C",[6],33.9%
same,"viability, T/C",[7],111%
same,"viability, T/C",[8],92.6%
same,"viability, T/C",[9],51.5%
same,"viability, T/C",[10],49.3%
same,"viability, T/C",[11],42.4%
same,"viability, T/C",[12],27.2%
same,"viability, T/C",[13],83.2%
same,"viability, T/C",[14],83%
same,"viability, T/C",[15],60%
same,"viability, T/C",[16],49.9%
same,"viability, T/C",[17],36%
same,"viability, T/C",[18],35.2%
same,"viability, T/C",[19],86.5%
same,"viability, T/C",[20],68.5%
same,"viability, T/C",[21],60.4%
same,"viability, T/C",[22],40%
same,"viability, T/C",[23],36.5%
same,"viability, T/C",[24],34.7%
same,"viability, T/C",[25],72.3%
same,"viability, T/C",[26],80.5%
same,"viability, T/C",[27],41.6%
same,"viability, T/C",[28],36%
same,"viability, T/C",[29],38%
same,"viability, T/C",[30],33.4%
same,"viability, T/C",[31],79.1%
same,"viability, T/C",[32],66%
same,"viability, T/C",[33],49.1%
same,"viability, T/C",[34],40.9%
same,"viability, T/C",[35],37.9%
same,"viability, T/C",[36],33.3%
Nc1ccn(C2OC(CO)C(O)C2(F)F)c(=O)n1 (stereo not drawn) + Cc1cccc(N(C)C(=O)C2C(O)CCN2c2nc(C)cc(C(F)(F)F)c2C#N)c1,IC50,second compound 0.0316 µM,169 nM
same,IC50,second compound 0.1 µM,175 nM
same,IC50,second compound 0.316 µM,117 nM
same,IC50,second compound 1 µM,141 nM
same,IC50,second compound 3.16 µM,146 nM
same,IC50,second compound 10 µM,126 nM
same,"viability, T/C",[1],81.5%
same,"viability, T/C",[2],62.4%
same,"viability, T/C",[3],35.5%
same,"viability, T/C",[4],15.5%
same,"viability, T/C",[5],13.2%
same,"viability, T/C",[6],11.9%
same,"viability, T/C",[7],82.9%
same,"viability, T/C",[8],68.2%
same,"viability, T/C",[9],30.5%
same,"viability, T/C",[10],15.2%
same,"viability, T/C",[11],12.4%
same,"viability, T/C",[12],7.96%
same,"viability, T/C",[13],73.8%
same,"viability, T/C",[14],54%
same,"viability, T/C",[15],26.5%
same,"viability, T/C",[16],15.5%
same,"viability, T/C",[17],13.2%
same,"viability, T/C",[18],10.8%
same,"viability, T/C",[19],78.3%
same,"viability, T/C",[20],61.4%
same,"viability, T/C",[21],23.1%
same,"viability, T/C",[22],18.2%
same,"viability, T/C",[23],12.1%
same,"viability, T/C",[24],10%
same,"viability, T/C",[25],65.2%
same,"viability, T/C",[26],60%
same,"viability, T/C",[27],30.7%
same,"viability, T/C",[28],15.7%
same,"viability, T/C",[29],10.1%
same,"viability, T/C",[30],10.3%
same,"viability, T/C",[31],80.6%
same,"viability, T/C",[32],53.7%
same,"viability, T/C",[33],33.6%
same,"viability, T/C",[34],17.4%
same,"viability, T/C",[35],12.2%
same,"viability, T/C",[36],11.4%
O=C(c1cc(Cc2n[nH]c(=O)c3ccccc23)ccc1F)N1CCN(C(=O)C2CC2)CC1 + Cc1cccc(N(C)C(=O)C2C(O)CCN2c2nc(C)cc(C(F)(F)F)c2C#N)c1,IC50,second compound 0.0316 µM,> 10000 nM
same,IC50,second compound 0.1 µM,> 10000 nM
same,IC50,second compound 0.316 µM,> 10000 nM
same,IC50,second compound 1 µM,> 10000 nM
same,IC50,second compound 3.16 µM,> 10000 nM
same,IC50,second compound 10 µM,> 10000 nM
same,"viability, T/C",[1],109%
same,"viability, T/C",[2],99.4%
same,"viability, T/C",[3],85.3%
same,"viability, T/C",[4],72.5%
same,"viability, T/C",[5],93.4%
same,"viability, T/C",[6],84.7%
same,"viability, T/C",[7],109%
same,"viability, T/C",[8],101%
same,"viability, T/C",[9],93.8%
same,"viability, T/C",[10],83.8%
same,"viability, T/C",[11],69.7%
same,"viability, T/C",[12],72.9%
same,"viability, T/C",[13],107%
same,"viability, T/C",[14],98.1%
same,"viability, T/C",[15],70.5%
same,"viability, T/C",[16],96.2%
same,"viability, T/C",[17],89.8%
same,"viability, T/C",[18],80.3%
same,"viability, T/C",[19],84.7%
same,"viability, T/C",[20],80.9%
same,"viability, T/C",[21],86.2%
same,"viability, T/C",[22],79%
same,"viability, T/C",[23],73.7%
same,"viability, T/C",[24],82.6%
same,"viability, T/C",[25],67%
same,"viability, T/C",[26],79.2%
same,"viability, T/C",[27],81.6%
same,"viability, T/C",[28],87.2%
same,"viability, T/C",[29],72.8%
same,"viability, T/C",[30],92.2%
same,"viability, T/C",[31],86.5%
same,"viability, T/C",[32],110%
same,"viability, T/C",[33],82.6%
same,"viability, T/C",[34],84%
same,"viability, T/C",[35],71.3%
same,"viability, T/C",[36],79.9%
O=c1[nH]cc(F)c(=O)[nH]1 + Cc1cccc(N(C)C(=O)C2C(O)CCN2c2nc(C)cc(C(F)(F)F)c2C#N)c1,IC50,second compound 0.0316 µM,2470 nM
same,IC50,second compound 0.1 µM,3060 nM
same,IC50,second compound 0.316 µM,3100 nM
same,IC50,second compound 1 µM,3340 nM
same,IC50,second compound 3.16 µM,2930 nM
same,IC50,second compound 10 µM,2100 nM
same,"viability, T/C",[1],90.7%
same,"viability, T/C",[2],85.8%
same,"viability, T/C",[3],95.5%
same,"viability, T/C",[4],77.8%
same,"viability, T/C",[5],42.6%
same,"viability, T/C",[6],29.5%
same,"viability, T/C",[7],123%
same,"viability, T/C",[8],109%
same,"viability, T/C",[9],106%
same,"viability, T/C",[10],74.9%
same,"viability, T/C",[11],50%
same,"viability, T/C",[12],30%
same,"viability, T/C",[13],102%
same,"viability, T/C",[14],105%
same,"viability, T/C",[15],80.3%
same,"viability, T/C",[16],82%
same,"viability, T/C",[17],43.9%
same,"viability, T/C",[18],34.8%
same,"viability, T/C",[19],94.3%
same,"viability, T/C",[20],95.3%
same,"viability, T/C",[21],77.4%
same,"viability, T/C",[22],85.8%
same,"viability, T/C",[23],50.7%
same,"viability, T/C",[24],30.6%
same,"viability, T/C",[25],93.8%
same,"viability, T/C",[26],92.6%
same,"viability, T/C",[27],85.8%
same,"viability, T/C",[28],69.7%
same,"viability, T/C",[29],49.1%
same,"viability, T/C",[30],27.6%
same,"viability, T/C",[31],90.8%
same,"viability, T/C",[32],122%
same,"viability, T/C",[33],99.2%
same,"viability, T/C",[34],68.9%
same,"viability, T/C",[35],41.9%
same,"viability, T/C",[36],29.3%
